# Where a SMILES comes first, the peptide text is derived from it. [ ]: non-standard residue; d: D form.
# Columns and labels:
# Toxicity (LD50) = conditions: in vivo; species and route not given; read-out: LD₅₀
# [1] = system: Leitungsbahnen des Hirnstammes; assay: Recording of short-latency auditory evoked potentials on acoustic stimulation in multiple sclerosis patients; type: in vivo, Menschen; conditions: MS patients
# Description: (§1) Bei der Behandlung der multiplen Sklerose mit dem erfindungsgemässen Präparat und mit T-Aktivin verwendete man neben einer klinischen Analyse der neurologischen Symptome auch eine Methode der Registrierung von kurzlatenten erzeugten Hörpotentialen auf die akustische Stimulation. Die Dynamik der neurologischen Symptome bewertete man in Punkten nach der Kurzkschen Skale. Man führt die Analyse der Punkten-Summe nach der Skale des neurologischen Defizits durch sowie nach der Skale der Invalidisierung (sich verschlimmernde Entwicklung) unter Berücksichtigung der sozialen Adaptation des jeweiligen Patienten durch. Bei der Untersuchung der kurzlatenten erzeugten Hörpotentiale erfolgte die Summierung von 3000 Antworten und es wurden 7 Komponenten registriert, die den funktionellen Zustand folgender Pegel eines Höranalysators widerspiegeln: I - Schneke des Hörnervs, II -Kerne des Cochlearkomplexes, III- Nucleus der oberen Olive, IV - Nucleus der lateralen Schleife, V - Kerne der Höcker der Vierhügelplatte, VI - Kerne mittlerer Kniehöcker, VII - Kerne Auditus kortex. Alle Komponenten wurden nach den Werten der Zwischenpeakintervalle und den Relationen der Peakamplituden analysiert. Die Kontrollgruppe für die Untersuchung der kurzlatenten erzeugten Hörpotentiale bildeten I2 praktisch gesunde Personen.
# (§2) Die Untersuchung der Patienten erfolgte vor der Verordnung der Präparate, in 5 und in I4 Tagen nach dem Beginn ihrer Verabreichung.
# Die Hauptgruppe der Patienten, die das erfindungsgemässe Präparat verabreicht bekamen, bestand aus 24 Personen (6 Männer und I8 Frauen) im alter von 20 bis 49 Jahren mit zerebrospinaler Form der multiplen Sklerose. Die Dauer der Erkrankung betrug von 2 bis 7 Jahren. Das erfindungsgemässe Präparat führe man den Patienten intramuskulär zu je I bis 2 mg zweimal am Tage innerhalb von 5 Tagen ein. Die Gruppe der Patienten, die das T-Aktivin bekam, bestand aus I4 Personen (6 Männer und 8 Frauen) im Alter von 23 bis 47 Jahren mit zerebrospinaler Form der multiplen Sklerose. Die Dauer der Erkrankung betrug von 2 bis 7 Jahren. […]
# [2] = system: Patienten mit amyotrophischen Lateralsklerose; assay: Clinical trial in amyotrophic lateral sclerosis patients: course of the disease, on top of conventional nonspecific therapy; type: in vivo, Menschen; conditions: ALS
# [3] = system: Patienten mit zerebrospinaler Form der multiplen Sklerose; assay: Clinical trial in multiple sclerosis patients: neurological status scored in points (Kurtzke scale: neurological deficit and progression/disability scale), on top of basic therapy; type: in vivo, Menschen
# Method: Das erfindungsgemässe Präparat für die Behandlung der multiplen Sklerose und der myotrophischen Lateralsklerose wurde in einer Klinik an Menschen erprobt.
# Bei der multiplen Sklerose erfolgte die Behandlung mit dem angemeldeten Präparat unter Anwendung der Basistherapie, die die Vitamine der B-Gruppe, Glutaminsäure, Nikotinsäure, Zerebrolysin, Midokalm, und Essentiale einschliesst. Das erfindungsgemässe Präparat wurde den Patienten intramuskulär zu je I bis 5 mg des Wirkstoffes, der in I ml einer physiologischen Lösung aufgelöst wird, zweimal pro Tag innerhalb von 5 Tagen eingeführt.
# Bei der Behandlung der multiplen Sklerose wurde die Wirkung des erfindungsgemässen Präparates mit der Wirkung von T-Aktivin verglichen, das unter Anwendung der gleichen wie bei der Behandlung mit dem angemeldeten Präparat Basistherapie eingeführt wurde. Das T-Aktivin führte man den Patienten intramuskulär einmal pro Tag zu je I ml I,0%iger Lösung innerhalb von 5 Tagen ein. Nach einer 7-tägigen Unterbrechung führte man das T-Aktivin in der gleichen dosis während 2 Tage ein.
# as §1, §2
# Hervorzuheben ist, dass bei den Patienten, denen das erfindungsgemässe Präparat und das T-Aktivin verordnet wurden, innnerhalb der letzten zwei Monate keine Dynamik im neurologischen Status nachgewiesen wurde. Das gab die Möglichkeit, die Verbesserung des Zustandes als Effekt von der Verordnung der Präparate zu betrachten.
# Die Hauptgruppe der Patienten, die das erfindungsgemässe Präparat verabreicht bekamen, bestand aus 24 Personen (6 Männer und I8 Frauen) im alter von 20 bis 49 Jahren mit zerebrospinaler Form der multiplen Sklerose. Die Dauer der Erkrankung betrug von 2 bis 7 Jahren. Das erfindungsgemässe Präparat führe man den Patienten intramuskulär zu je I bis 2 mg zweimal am Tage innerhalb von 5 Tagen ein. Die Gruppe der Patienten, die das T-Aktivin bekam, bestand aus I4 Personen (6 Männer und 8 Frauen) im Alter von 23 bis 47 Jahren mit zerebrospinaler Form der multiplen Sklerose. Die Dauer der Erkrankung betrug von 2 bis 7 Jahren.
# Das T-Aktivin führte man den patienten intramuskulär zu je I ml 0,I%iger Lösung einmal pro Tag innerhalb von 5 Tagen ein. […]
# Bei der Einlieferung ins Krankenhaus wurden dem Patienten Vitamine BI und B₆, Glutaminsäure, innerhalb eines Monates Zerebrolysin verabreicht, durchgeführt wurden kurze Kuren mit Midokalm und Essentiale. […]
# [4] = of 62 patients, listed as Präparat + Nichtspezifische Therapie
# [5] = of 62 patients, pronounced plus moderate improvement
# [6] = patients with sekundärer Verschlimmerung, effect mainly am I5. Tag
# [7] = patients: Leichter Grad, Am I5. Tag
# [8] = patients: Remittierend, a) Verschlimmerung, Am I5. Tag
smiles,measurement,setting,value
"CC(C)C[C@H](NC(=O)[C@H](Cc1ccccc1)NC(=O)CNC(=O)[C@@H](C)NC(=O)[C@@H](N)Cc1ccc(O)cc1)C(=O)N[C@@H](CCCNC(=N)N)C(=O)O [erfindungsgemässe Präparat, Tyr-D-Ala-Gly-Phe-Leu-Arg] (H-Y[dA]GFLR-OH)",LD50,Toxicity (LD50),520 mg/kg
same,Differenzen der Latenzwerte III Peak-I Peak,[1]; Am 6. Tag,"2,22±0,05"
same,Differenzen der Latenzwerte III Peak-I Peak,[1]; Am I5. Tag,"2,20±0,06"
same,Verhältnis der Amplituden V Peak - I Peak,[1]; Am I5. Tag,"0,88±0,23"
same,"Verbesserung Ausgeprägt, number of patients",[2]; of 62 patients,8
same,"Verbesserung Mässig, number of patients",[2]; of 62 patients,16
same,"Verbesserung Mässig, share of patients",[2]; of 62 patients,26%
same,"keine Anzeichen einer sich verschlimmernden Entwicklung (stabiler Zustand oder Verbesserung), share of patients",[2]; of 62 patients,84%
same,"Sich verschlimmernde Entwicklung, number of patients",[2]; [4],10
same,"Sich verschlimmernde Entwicklung, share of patients",[2]; [4],16%
same,"Verbesserung Ausgeprägt, share of patients",[2]; [4],13%
same,"Verbesserung des Zustandes, number of patients",[2]; [5],24 Personen
same,"Verbesserung des Zustandes, share of patients",[2]; [5],39%
same,"Fehlen der Dynamik, number of patients","[2]; of 62 patients, stable state",28
same,"Fehlen der Dynamik, share of patients","[2]; of 62 patients, stable state",45%
same,"keine Anzeichen einer sich verschlimmernden Entwicklung, number of patients","[2]; of 62 patients, stable state or improvement",52 Personen
same,sich verschlimmernde Entwicklung seltener im Vergleich zur Kontrollgruppe,[2]; preparation plus conventional therapy vs conventional therapy alone,"4,8 fache"
same,Parese in den Füssen,"[2]; Beispiel 3, Patient, two 2-week courses of I mg i.m. twice daily, at admission 2 Punkte",0 Punkte
same,Paresegrad in proximalen Abschnitten von Beinen und Armen,"[2]; Beispiel 4, Patient E., 4I years, two 2-week courses of 2 mg i.m. twice daily",0 Punkte
same,Parese der Extremitäten,"[2]; Beispiel 5, Patient M., second stay, two 2-week courses of I mg i.m. twice daily",0 Punkte
same,Punkte nach der Skale der sich verschlimmernden Entwicklung,"[3]; Beispiel I, Patientin K., 46 years, progredient MS, after 5 days of I mg twice daily, before treatment 6",4
same,"klinische Verbesserung, Anteil der Patienten","[3]; MS patients, whole group, after the course of treatment",89%
same,Verringerung der Summe der Punkte nach der Skale des neurologischen Defizits,"[3]; patients with mittlerem Schweregrad, am 6. Tag","4,3 Punkte"
same,Senkung des Indexes nach der Skale der sich verschlimmernden Entwicklung,[3]; [6],"2,4 Punkte"
same,Verringerung der Summe der Punkte nach der Skale des neurologischen Defizits,[3]; [6],"6,3 Punkte"
same,Gesamtpunktenzahl nach der Skala des neurologischen Defizits,[3]; [7],"8,6±0,9 Punkte"
same,Index nach der Skala der sich verschlimmernden Entwicklung,[3]; [7],"2,8±0,5 Punkte"
same,Index nach der Skala der sich verschlimmernden Entwicklung,"[3]; patients: Leichter Grad, Vor der Behandlung (baseline)","3,7±0,4 Punkte"
same,Index nach der Skala der sich verschlimmernden Entwicklung,"[3]; patients: Mittlerer Grad, Am 6. Tag","4,9±0,3 Punkte"
same,Index nach der Skala der sich verschlimmernden Entwicklung,"[3]; patients: Mittlerer Grad, Am I5. Tag","4,4±0,6 Punkte"
same,Index nach der Skala der sich verschlimmernden Entwicklung,"[3]; patients: Remittierend, a) Verschlimmerung, Am 6. Tag",3 Punkte
same,Gesamtpunktenzahl nach der Skala des neurologischen Defizits,[3]; [8],5 Punkte
same,Index nach der Skala der sich verschlimmernden Entwicklung,[3]; [8],2 Punkte
same,Index nach der Skala der sich verschlimmernden Entwicklung,"[3]; patients: Remittierend, a) Verschlimmerung, Vor der Behandlung (baseline)",5 Punkte
same,Index nach der Skala der sich verschlimmernden Entwicklung,"[3]; patients: Remittierend, b) Remission, Am 6. Tag","3,3±0,5 Punkte"
same,Index nach der Skala der sich verschlimmernden Entwicklung,"[3]; patients: Remittierend, b) Remission, Am I5. Tag","3,4±0,5 Punkte"
same,Index nach der Skala der sich verschlimmernden Entwicklung,"[3]; patients: Remittierend, b) Remission, Vor der Behandlung (baseline)","4,3±0,8 Punkte"
same,Index nach der Skala der sich verschlimmernden Entwicklung,"[3]; patients: Remittierend, c) sekundäre Verschlimmerung, Am 6. Tag","4,8±2,0 Punkte"
same,Index nach der Skala der sich verschlimmernden Entwicklung,"[3]; patients: Remittierend, c) sekundäre Verschlimmerung, Am I5. Tag","3,5±0,4 Punkte"
same,Verringerung des Index nach der Skale der Weiterentwicklung der Krankheit,"[3]; single patient in acute state of MS, zum I5. Tag",3 Punkte
same,Verringerung der Summe der Punkte nach der Skale des neurologischen Defizits,"[3]; whole group, in 5 Tagen nach dem Beginn der Behandlung","2,9 Punkte"
same,Verringerung der Summe der Punkte nach der Skale des neurologischen Defizits,"[3]; whole group, in I4 Tagen nach dem Beginn der Behandlung","3,8 Punkte"

# — patent EP0336976A1, “PHARMACEUTICAL PREPARATION FOR CURING MULTIPLE SCLEROSIS AND LATERAL A[…]” (VSESOJUZNY KARDIOLOGICHESKY NAUCHNY TSENTR AKADEMII …, priority 1987, dated 1989)
